Source: US20240252463A1, “METHODS OF TREATING FIBROTIC PATHOLOGIES” (Mayo Foundation for Medical Education and Research, priority 2018, published 2024)

Key:
[1] = tested on: human dermal fibroblasts; test: Profibrotic gene expression in human dermal fibroblasts +/- TGFβ; assay type: cell-based; conditions: 24 hours +/− 2 ng/mL TGFβ
Experimental: Human dermal fibroblasts treated for 24 hours+/−2 ng/mL TGFβ and D1 agonists: DHX and A68930 prior to RNA isolation. N=2. For all other in vitro experiments, cells were treated as indicated prior to RNA isolation using RNeasy Plus Mini Kit (Qiagen) according to manufacturer's instructions. Isolated RNA (250 ng) was then used to synthesize cDNA using SuperScript VILO (Invitrogen). Quantitative PCR was performed using FastStart Essential DNA Green Master (Roche) and analyzed using a LightCycler 96 (Roche). Data are expressed as a fold change by ΔΔCt relative to GAPDH. For in vivo experiments, tissue was immediately frozen, and stored at −80° C. RNA isolation, cDNA synthesis, and qPCR analysis were performed as above.

[2] = tested on: YAP/TAZ target genes; test: YAP/TAZ target gene expression in flow-sorted lung cells of bleomycin-injured mice; assay type: in vivo, mouse; conditions: bleomycin day 10, two doses of DHX (2 and 24 hours prior to collecting lungs)
Experimental: 29A. Two groups of mice were injured intratracheally with bleomycin at day 0, on day 10 one group received two doses of DHX (2 and 24 hours prior to collecting lungs) and the other received vehicle control. On day 11 lungs were collected to flow sort fibroblasts, epithelial, and endothelial cells. 29B. Changes in RNA expression of YAP/TAZ target genes from freshly isolated cells.
Cell Sorting: FACS: PBS perfused mouse lungs were finely minced with a razor blade in a 100 mm petri dish in 1 mL of cold DMEM medium containing 0.2 mg ml^−1 Liberase DL (Roche) and 100 U ml^−1 DNase I (Roche). The mixture was transferred to 15 ml tubes and incubated at 37° C. for 30 min in a water bath. Enzymatic digestion was inactivated by adding DMEM medium containing 10% fetal bovine serum. The cell suspension was passed once through a 40 µm cell strainer (Fisher) to remove multicellular debris. Cells were then centrifuged at 1,300 r.p.m. at 4° C. for 10 min, washed once in PBS and resuspended in 0.2 ml of FACS buffer (1% BSA, 0.5 μM EDTA pH 7.4 in PBS). The single cell suspension was then incubated with anti-CD45-PerCp-Cy5.5, anti-CD31-PE, anti-PDGFRα-APC and anti-EpCAM-BV421 antibodies (1:200) (Biolegend) for 20 min on ice. After incubation, cells were washed with ice-cold FACS buffer and resuspended in 1 ml of FACS buffer. FACS sorting was conducted using a BD FACS Aria II (BD Biosciences). […]

[3] = tested on: NIH-3T3 cells; test: Matrix Remodeling Measured by Atomic Force Microscopy (NIH-3T3 cell-derived matrix); assay type: cell-based, mouse; conditions: TGFβ + ascorbic acid 72 hours, then 10 μM DHX additional 72 hours
Experimental: Matrix Remodeling Measured by Atomic Force Microscopy: NIH-3T3 cells were plated to confluence onto gelatin coated (Cell Biologics) AFM compatible tissue culture dishes (Willco) in DMEM containing 10% FBS. After cells attached overnight media was replaced with DMEM containing 2% FBS, 2 ng/mL TGFβ, and 20 μg/mL ascorbic acid to promote matrix deposition. After 72 hours, measurements were made using a BioScope Catalyst AFM (Bruker, MA, USA). Microindentations were performed using a 2.5 μm radius sphere-tipped probe (Novascan, IA, USA) with a spring constant determined at ˜100 pN nm^−1 by thermal fluctuation method. For each dish, 3 different areas were analyzed. Force curves were acquired with MIRO 2.0 (NanoScope 9.1; Bruker) at an indentation rate of […] and a ramp size of […] on different points. 75 force curves were performed per cell dish (25 per area). The Young's modulus E was determined by the fitting of force curve by Hertz model using NanoScope Analysis software (Bruker) and considering Poisson's ratio of 0.5. […]
The results above were consistent with DHX not only attenuating key aspects of fibroblast pro-fibrotic activation, but potentially shifting their phenotype toward one that promotes fibrosis clearance and resolution. […] After 72 hours the stiffness of the cells and their cell-derived matrix were measured using atomic force microscopy (AFM). […]

In the case of `Oc1cc2c(cc1O)[C@H]1c3ccccc3CN[C@@H]1CC2` (racemic) [Dihydrexidine, dihydrexidine], the “profibrotic gene expression in human dermal fibroblasts” value [1] is reported as “blocks profibrotic gene expression”, the “expression of YAP/TAZ target genes in freshly isolated lung fibroblasts, epithelial and endothelial cells” value [2] is reported as “selectively blocks expression of YAP/TAZ target genes in lung fibroblasts in vivo” and the “stiffness of cells and cell-derived matrix (AFM)” value [3] is reported as “significantly reduced the observed stiffness”.
